Data as given in patent publication US20230270692A1, “COMPOUNDS FOR CHRONIC DISORDERS” (Pillai Universal LLC, priority 2020, published 2023).

Legend:
[1] = tested on: histone H3 acetylation, acetyl-α-tubulin; assay: Histone H3 / α-tubulin acetylation western blot in PANC cells; assay type: cell-based, Human
Method: Class I HDAC expression during pancreatic tumorigenesis was next examined. Briefly different concentration of Compound I were added and incubated for 24 h. […] Inhibition of Class I HDACs is associated with the upregulation of histone H3 acetylation and p21 mRNA and protein expression which have associated with the anti-proliferative activity. It has also been reported that HDAC6 functions as a α-tubulin deacetylase, modulating tubulin stability. Because α-tubulin and histone H3 are mutual downstream targets of HDACs, the relationship between protein expression and function of molecules was further examined. The effects of Compound I on histone H3 acetylation in PANC cells using western blot analysis was studied.

[2] = tested on: panel of human normal cell lines; assay: MTT cytotoxicity of anticancer agents on normal cell lines, alone and with Compound I; settings: combination treatment
Method: The cytotoxicity of anticancer agents was studied using a panel of human normal cell lines alone and with the combination of Compound I of the present invention. The cytotoxicity effect was determined by MTT assay. The following cell lines were used: Human epidermal keratinocytes cells (HaCaT), Human dermal fibroblast (HDF), Human bone marrow mesenchymal stem cells (HBMSCs), Human normal hepatocytes cells (THLE2), Human cardiac cells (AC-16), Human intestinal epithelial cells (HIEC-6), Human neuronal cells (SHSY-5Y), Human vascular Endothelial cells (HuVECs), Human lung epithelial cells (Calu-3), Human lung fibroblast (MRC 5).
Next, the cells were treated with anticancer agents in combination with Compound I of the present invention.

PANC-1 xenograft = PANC-1 xenograft mouse model; assay type: in vivo
Method: Study Design: A PANC-1 xenograft mouse model was carried out according to the experimental design described in FIG. 21A. Tumor volume was monitored over a 30-day period upon administration of PBS alone (vehicle control), 25 mg/kg gemcitabine, and 10 mg/kg Compound I.

[3] = Cytotoxicity in Calu-3 cells; assay type: cell-based; settings: human, Calu-3 lung epithelial cells, read-out: 50% cytotoxic concentration (CC50)
Method: The antiviral activity of Compound I was assessed against SARS-CoV-2 in Calu-3 cultures. […] To determine if Compound I could inhibit replication, we first evaluated antiviral activity and cytotoxicity in the continuous human lung epithelial cell line Calu-3 cells.

[4] = tested on: cytotoxic cells, macrophages, NK cell and DC; assay: Immune response
Source text: Compound I has the ability to activate CD4+ helper […] and generates an immune response in the body to protect against viral infections, Specifically, Compound I increases the number and activity of cytotoxic cells and promotes the activation of macrophages NK cell and DC which facilitate APC to CD4+ and CD8+ through capture, internalization, processing and presentation of antigens via MHC class I and II molecules.

COc1cc(/C=C/C(=O)/C=C/C=C/c2cc(OC)c(O)c(OC)c2)cc(OC)c1 [Compound I]
acetyl-α-tubulin [1]: no acetyl-α-tubulin was detected | histone H3 acetylation ([1]; compared with control): stronger hyperacetylation | effect on toxicity induced by anticancer agents in normal cells [2]: reduces the toxic effect induced by anticancer agents | imaging studies (PANC-1 xenograft; 10 mg/kg): no detectable tumor | tumor volume (PANC-1 xenograft; day 5 to day 30, 25 mg/kg gemcitabine, 10 mg/kg Compound I): decrease | survival (PANC-1 xenograft; mouse, in vivo): improved survival | CC50 [3]: > 100 µM | number and activity of cytotoxic cells [4]: increases
